# From paper PMC12715762, “Discovery of VU6052254: A Novel, Potent M1 Positive Allosteric Modulator” (ACS Chemical Neuroscience, 2025)
# What was measured:
# [1] = hepatocyte metabolite stability (monkey); assay type: in vitro ADME; conditions: Monkey hepatocytes, 4 h incubation of the parent PAM
# From the text: (§1) However, the hepatocyte stability of 7 was far better than 1 for rat, dog, and human and was therefore poised for further advancement of compound characterization.
# [2] = hepatocyte metabolite stability (human); assay type: in vitro ADME; conditions: Human hepatocytes, 4 h incubation of the parent PAM
# From the text: From this exercise, a single compound emerged, harboring a tertiary hydroxyl moiety at the 7-position of the indazole, VU6052254 (henceforth PAM 7).
# as §1
# [3] = multispecies hepatocyte stability, summary across species; assay type: in vitro ADME, rat, dog, monkey, human
# From the text: as §1
# [4] = Human Phase I; cited from earlier work
# [5] = kinetic / aqueous solubility; assay type: physicochemical; conditions: result in words
# [6] = dog MTD study and high-dose rat 14-day toxicology study; result in words; cited from earlier work
# [7] = system: Sprague-Dawley rats; assay: CFC with scopolamine challenge; assay type: in vivo, rat
smiles,measurement,setting,value
Cn1cc2c(-c3cc(F)c(CN4C(=O)c5cccnc5C4O)c(F)c3)cccc2n1 (stereo not shown) [compound 2],"% Total Peak Area, oxidative metabolite (label = metabolite)",[1],74.3%
same,"% Total Peak Area, oxidative metabolite (label = metabolite)",[2],34.9%
same,level of oxidative metabolite generated (label = metabolite),"[3]; across all four species (rat, dog, monkey, human hepatocytes)",> 23%
same,metabolite share of plasma AUC of total VU0467319 drug administered,[4],> 50%
[2H]C1([2H])c2ncccc2C(=O)N1Cc1c(F)cc(-c2cccc3nn(C([2H])([2H])[2H])cc23)cc1F [compound 5],aqueous solubility,[5],low aqueous solubility
same,amount of oxidative metabolism at high dose,[6],comparable to that of VU0467319 (1)
[2H]C1(O)c2ncccc2C(=O)N1Cc1c(F)cc(-c2cccc3nn(C([2H])([2H])[2H])cc23)cc1F (stereo not shown) [compound 6],"% Total Peak Area, oxidative metabolite (label = metabolite)",[1],21%
same,level of oxidative metabolite generated (label = metabolite),[3]; across species except for monkey,< 10%
CN1[C@@H]2C[C@@H](OC(=O)[C@H](CO)c3ccccc3)C[C@H]1[C@@H]1O[C@@H]12 [scopolamine],disruption of acquisition of CFC,"[7]; 0.25 mg/kg IP, rat",~65%
same,effect of scopolamine alone on acquisition of CFC,"[7]; 0.26 mg/kg as printed, result in words",robust decrease in the acquisition of CFC
